15 molecules from US11919904B2, “Sulfonylamide compounds as CDK2 inhibitors” (Incyte Corporation, priority 2019, dated 2024) can be followed below.

This test concerns the target CDK2/Cyclin E1 (Homo sapiens (Human), UniProt P24941). The experiment in a line: CDK2/Cyclin E1 HTRF enzyme activity assay. The format is biochemical. Conditions: 1 mM ATP. The protocol:
CDK2/Cyclin E1 enzyme activity assays utilize full-length human CDK2 co-expressed as N-terminal GST-tagged protein with FLAG-Cyclin E1 in a baculovirus expression system (Carna Product Number 04-165). Assays are conducted in white 384-well polystyrene plates in a final reaction volume of 8 μL. CDK2/Cyclin E1 (0.25 nM) is incubated with compounds (40 nL serially diluted in DMSO) in the presence of ATP (50 μM or 1 mM) and 50 nM ULight™-labeled eIF4E-binding protein 1 (THR37/46) peptide (PerkinElmer) in assay buffer (containing 50 mM HEPES pH 7.5, 1 mM EGTA, 10 mM MgCl2, 2 mM DTT, 0.05 mg/mL BSA, and 0.01% Tween 20) for 60 minutes at room temperature. The reactions are stopped by the addition of EDTA and Europium-labeled anti-phospho-4E-BP1 antibody (PerkinElmer), for a final concentration of 15 mM and 1.5 nM, respectively. HTRF signals are read after 1 hour at room temperature on a PHERAstar FS plate reader (BMG Labtech). Data is analyzed with IDBS XLFit and GraphPad Prism 5.0 software using a three or four parameter dose response curve to determine IC50 for each compound.

The structures appear in SMILES notation.

`CNS(=O)(=O)c1ccc(Nc2ncc3c(n2)N([C@@H]2CCC[C@]2(C)O)C(=O)C32CC2)cc1` (relative stereo) [Example 1, 4-((7′-((cis)-2-hydroxy-2-methylcyclopentyl)-6′-oxo-6′,7′-dihydrospiro[cyclopropane-1,5′-pyrrolo[2,3-d]pyrimidin]-2′-yl)amino)-N-methylbenzenesulfonamide]: the IC50 was not above 50 nM. The value for `CNS(=O)(=O)c1ccc(Nc2ncc3c(n2)N([C@@H]2CCC[C@H]2C)C(=O)C32CC2)cc1` (relative stereo) [Example 2, N-methyl-4-((7′-((trans)-2-methylcyclopentyl)-6′-oxo-6′,7′-dihydrospiro[cyclopropane-1,5′-pyrrolo[2,3-d]pyrimidin]-2′-yl)amino)benzenesulfonamide] was not above 50 nM; that for `CC1(NS(=O)(=O)c2ccc(Nc3ncc4c(n3)N([C@@H]3CCC[C@]3(C)O)C(=O)C43CC3)cc2)CNC1` (relative stereo) [Example 3, 4-((7′-((cis)-2-hydroxy-2-methylcyclopentyl)-6′-oxo-6′,7′-dihydrospiro[cyclopropane-1,5′-pyrrolo[2,3-d]pyrimidin]-2′-yl)amino)-N-(3-methylazetidin-3-yl)benzenesulfonamide] was not above 50 nM. The value for `CNS(=O)(=O)c1ccc(Nc2ncc3c(n2)N([C@@H]2CCC[C@@]2(C)O)C(=O)C32CC2)c(F)c1` (relative stereo) [Example 11, 3-fluoro-4-((7′-((trans)-2-hydroxy-2-methylcyclopentyl)-6′-oxo-6′,7′-dihydrospiro[cyclopropane-1,5′-pyrrolo[2,3-d]pyrimidin]-2′-yl)amino)-N-methylbenzenesulfonamide] was not above 50 nM. In the case of `[2H]C([2H])([2H])NS(=O)(=O)c1ccc(Nc2ncc3c(n2)N([C@@H]2CCC[C@@]2(C)O)C(=O)C32CC2)cc1` (single isomer, unassigned) [Example 9, 4-((7′-((trans)-2-hydroxy-2-methylcyclopentyl)-6′-oxo-6′,7′-dihydrospiro [cyclopropane-1,5′-pyrrolo[2,3-d]pyrimidin]-2′-yl)amino)-N-(methyl-d)benzene sulfonamide], the half-inhibitory concentration (IC50) was not above 50 nM. `CC[C@@H](N1C(=O)C2(CC2)c2cnc(Nc3ccc(S(=O)(=O)NC)cc3)nc21)C(F)(F)F` [Example 4, (R)—N-methyl-4-((6′-oxo-7′-(1,1,1-trifluorobutan-2-yl)-6′,7′-dihydrospiro[cyclopropane-1,5′-pyrrolo[2,3-d]pyrimidin]-2′-yl)amino)benzenesulfonamide]: the IC50 was not above 50 nM. The value for `CC1CCCC1N1C(=O)C2(CC2)c2cnc(Nc3ccc(S(=O)(=O)N[C@@H]4CCCN(C)C4)cc3)nc21` (stereo partly drawn) [Example 5, 4-((7′-(2-methylcyclopentyl)-6′-oxo-6′,7′-dihydrospiro[cyclopropane-1,5′-pyrrolo[2,3-d]pyrimidin]-2′-yl)amino)-N—((R)-1-methylpiperidin-3-yl) benzenesulfonamide] was not above 50 nM. Then `CNS(=O)(=O)c1ccc(Nc2ncc3c(n2)N([C@@H]2CCC[C@@H](O)C2)C(=O)C32CC2)cc1` [Example 6, 4-((7′-((1R,3R)-3-hydroxycyclohexyl)-6′-oxo-6′,7′-dihydrospiro [cyclopropane-1,5′-pyrrolo[2,3-d]pyrimidin]-2′-yl)amino)-N-methylbenzene sulfonamide], with not above 50 nM. The value for `[2H]C([2H])([2H])NS(=O)(=O)c1ccc(Nc2ncc3c(n2)N([C@@H]2CCC[C@@H](O)C2)C(=O)C32CC2)cc1` [Example 7, 4-((7′-((1R,3R)-3-hydroxycyclohexyl)-6′-oxo-6′,7′-dihydrospiro[cyclopropane-1,5′-pyrrolo[2,3-d]pyrimidin]-2′-yl)amino)-N-(methyl-d)benzenesulfonamide] was not above 50 nM; that for `[2H]C([2H])([2H])NS(=O)(=O)c1ccc(Nc2ncc3c(n2)N([C@@H](C)C2CC2)C(=O)C32CC2)cc1` [Example 8, (S)-4-((7′-(1-cyclopropylethyl)-6′-oxo-6′,7′-dihydrospiro[cyclopropane-1,5′-pyrrolo[2,3-d]pyrimidin]-2′-yl)amino)-N-(methyl-d)benzenesulfonamide] was not above 50 nM. The molecule `CC(C)(O)CNS(=O)(=O)c1ccc(Nc2ncc3c(n2)N([C@@H]2CCC[C@@]2(C)O)C(=O)C32CC2)cc1` [Example 10, 4-((7′-(2-hydroxy-2-methylcyclopentyl)-6′-oxo-6′,7′-dihydrospiro [cyclopropane-1,5′-pyrrolo[2,3-d]pyrimidin]-2′-yl)amino)-N-(2-hydroxy-2-methylpropyl)benzenesulfonamide] had an IC50 not above 50 nM. `CN(C)CCNS(=O)(=O)c1ccc(Nc2ncc3c(n2)N(c2cc(F)ccc2Cl)C(=O)C32CC2)cc1` [Example 12, 4-((7′-(2-chloro-5-fluorophenyl)-6′-oxo-6′,7′-dihydrospiro[cyclopropane-1,5′-pyrrolo[2,3-d]pyrimidin]-2′-yl)amino)-N-(2-(dimethylamino)ethyl)benzenesulfonamide]: the IC50 is not above 50 nM.

Regarding `CNS(=O)(=O)c1ccc(Nc2ncc3c(n2)N(c2cc4c(cc2Cl)CNCC4)C(=O)C32CC2)cc1` [Example 13, 4-((7′-(7-chloro-1,2,3,4-tetrahydroisoquinolin-6-yl)-6′-oxo-6′,7′-dihydrospiro[cyclopropane-1,5′-pyrrolo[2,3-d]pyrimidin]-2′-yl)amino)-N-methylbenzenesulfonamide], the IC50 was not above 50 nM.

In turn, `CNS(=O)(=O)c1ccc(Nc2ncc3c(n2)N(c2cc(F)ccc2C)C(=O)C32CC2)cc1` [Example 14, 4-((7′-(5-fluoro-2-methylphenyl)-6′-oxo-6′,7′-dihydrospiro[cyclopropane-1,5′-pyrrolo[2,3-d]pyrimidin]-2′-yl)amino)-N-methylbenzenesulfonamide] gave an IC50 not above 50 nM.

`CNS(=O)(=O)c1ccc(Nc2ncc3c(n2)N(c2cc(F)ccc2Cl)C(=O)C32CC2)cc1` [Example 15, 4-((7′-(2-chloro-5-fluorophenyl)-6′-oxo-6′,7′-dihydrospiro[cyclopropane-1,5′-pyrrolo[2,3-d]pyrimidin]-2′-yl)amino)-N-methylbenzenesulfonamide] came in with an IC50 not above 50 nM.
